Read-outs that look alike come from different tables or passages of the source.
Key:
rat cardiac allograft = rat cardiac allograft transplant model (ACI to Lewis); format: in vivo; conditions: for mean survival time of the graft (MST): vehicle MST = 6 days
Description: Cardiac graft of ACI (RT1a) rats was heterotopically transplanted into the abdominal cavity of Lewis (RT1^l) recipients employing a microvascular surgical technique as described. The grafts were monitored daily by abdominal palpation, and the complete cessation of heart contraction was defined as graft rejection. SCH 546738 or 0.4% methylcellulose (vehicle) was orally administered at the indicated dose (0.2 ml) twice a day, starting on the day before transplantation until the day of graft rejection. To test whether SCH 546738 enhanced the effect of conventional immunosuppressive reagent, the recipients were received treatment with subtherapeutic dose of CsA for one week combined with treatment with SCH 546738. Graft survival was analyzed using the log-rank test. The parametric data were analyzed by Student t test (2-tailed) using GraphPad InStat version 5.0.1 for Windows 98, GraphPad Software, San Diego California USA (http://www.graphpad.com). p < 0.05 was considered statistically significant.
SCH 546738 was administered orally twice daily at 1, 5 and 15 mpk. […] Graft survival was analyzed using the log-rank test.

[1] = plasma pharmacokinetics after oral dosing in Lewis rat; format: in vivo; conditions: 10 mg/kg oral in 0.4% methylcellulose, n = 3, read-out: AUC (0-24 hr)
Description: (§1) SCH 546738 was tested at concentrations of 1-10 μM against a panel of 49 GPCR binding assays. Most of the assays were not affected by SCH 546738 (Table 2). […] In addition, SCH 546738 has a favourable pharmacokinetic profile in rodents. […] Therefore, SCH 546738 is suitable for in vivo preclinical studies.
(§2) Figure 4 Plasma concentration versus time profiles of SCH 546738 in Lewis rat and C57BL/6 mouse. SCH 546738 in 0.4% methylcellulose was administered orally at 10 mg/kg (mpk) in Lewis rats or 30 mpk in C57BL/6 mice. The plasma concentration of SCH 546738 in the blood was calculated as the mean of 3 animals (n = 3) at indicated time points post-dose. Their AUC from 0 to 24 hr is also calculated and indicated.

[2] = plasma pharmacokinetics after oral dosing in C57BL/6 mouse; format: in vivo; conditions: 30 mg/kg, 30 mpk oral in 0.4% methylcellulose, n = 3, read-out: AUC (0-24 hr)
Description: as §1, §2

CXCR3 = molecular target: T1, CXCR3 (Homo sapiens, UniProt P49682); assay: [125I]hCXCL10 competition binding (SPA, Ba/F3 membranes); set-up: expressed in transfected cells; host or cells: mouse pro-B Ba/F3 cells (vector pME18Sneo), membrane preparation
T1 sequence (P49682 1-368): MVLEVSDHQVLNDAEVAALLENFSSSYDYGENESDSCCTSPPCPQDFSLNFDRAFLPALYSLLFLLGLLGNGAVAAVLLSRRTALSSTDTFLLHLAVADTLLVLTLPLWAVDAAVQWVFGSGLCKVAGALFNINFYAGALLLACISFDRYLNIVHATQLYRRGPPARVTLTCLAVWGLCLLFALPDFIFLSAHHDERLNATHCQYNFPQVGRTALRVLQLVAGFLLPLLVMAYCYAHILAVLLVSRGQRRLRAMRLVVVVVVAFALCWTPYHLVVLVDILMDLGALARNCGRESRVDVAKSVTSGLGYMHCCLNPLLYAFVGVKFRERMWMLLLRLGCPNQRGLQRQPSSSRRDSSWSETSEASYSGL
Description: The cDNAs encoding human, mouse and rat CXCR3 were generated based on the published sequences: human (NM_001504), mouse (NM_009910), rat (NM_053415). The cDNAs for monkey and dog CXCR3 were cloned in the lab. All CXCR3 cDNAs were cloned into the mammalian expression vector pME18Sneo, a derivative of the SRα expression vector as described previously. IL-3-dependent mouse pro-B cells Ba/F3 were transfected to express CXCR3 of different species and cell membranes were prepared as described previously.
A scintillation proximity assay was used for radioligand competition binding assays as described previously with some modifications. For each assay point, 1 µg of membrane was preincubated for 1 hr with 300 µg wheat germ agglutinin (WGA) coated SPA beads (GE Healthcare Life Sciences) in the binding buffer (50 mM HEPES, 1 mM CaCl2, 5 mM MgCl2, 125 mM NaCl, 0.002% NaN3, 1.0% BSA) at room temperature. The beads were spun down, resuspended in the binding buffer and transferred to a 96-well Isoplate (Wallac, Gaithersburg, MD). The indicated concentrations of ^125I-hCXCL10, ^125I-hCXCL11 or ^35S-SCH 535390 with a series of titrations of SCH 546738 were added to start the reaction. After indicated reaction times at room temperature, the amount of radioactivity bound to the SPA beads was determined with a Wallac 1450 Microbeta counter (Wallac).
The ability of SCH 546738 to compete the binding of [^125I]hCXCL10 and [^125I]hCXCL11 to human CXCR3 receptor was determined using various concentrations of [^125I]hCXCL10 and [^125I]hCXCL11 as described in Methods. After 3 hr reaction, specific counts relative to input counts (B/B0) in the presence of increasing concentrations of SCH 546738 are plotted.

**Q.** With `CC[C@H]1CN(c2nc(N)c(C(N)=O)nc2Cl)CCN1C1CCN(Cc2ccc(Cl)cc2)CC1` [SCH 546738] as the compound, how does the “mean survival time of the graft (MST)” value (rat cardiac allograft; 1 mpk oral twice daily) read?
**A.** The value was 11 days.

**Q.** And the “rate of permanent engraftment” value (rat cardiac allograft; 5 mpk SCH 546738 twice daily in combination with 2.5 mpk cyclosporine)?
**A.** Its value is 100%.

**Q.** And the “mean survival time of the graft (MST)” value (rat cardiac allograft; 5 mpk oral twice daily)?
**A.** The value was 14 days.

**Q.** And the “mean survival time of the graft (MST)” value (rat cardiac allograft; 15 mpk oral twice daily)?
**A.** Its value is 14.9 days.

**Q.** And the AUC(0-t) [1]?
**A.** The AUC(0-t) was 7.7 µM·h.

**Q.** What about the AUC(0-t) [2] of the same compound?
**A.** The AUC(0-t) was 12.6 µM·h.

**Q.** What about the IC50 (CXCR3; Human CXCR3, [125I]hCXCL10, read-out: IC50 (nM) (CXCL10)) of the same compound?
**A.** The IC50 was 0.8 nM.

**Q.** And the IC50 (CXCR3; [125I-hIP-10] 100 pM, 3 hr reaction, read-out: IC50)?
**A.** Its IC50 is 1 nM.

**Q.** What about the IC50 (CXCR3; [125I-hIP-10] 500 pM, 3 hr reaction, read-out: IC50) of the same compound?
**A.** The IC50 was 1.2 nM.

**Q.** And the IC50 (CXCR3; [125I]hCXCL10 25-500 pM, read-out: IC50 (constant, independent of input concentration))?
**A.** The IC50 was roughly 1 nM.

**Q.** And the “mode of antagonism of CXCL10 and CXCL11 binding to CXCR3” value (CXCR3; both CXCL10 and CXCL11)?
**A.** The value was “non-competitive antagonist”.

**Q.** What about the IC50 (CXCR3; range over both radioligands CXCL10 and CXCL11, read-out: IC50 for displacing radiolabeled CXCL10 and CXCL11 from human CXCR3) of the same compound?
**A.** The IC50 was 0.8 to 2.2 nM.
